Legend:
[1] = tested on: POPC LUVs or purified PICV
R18-labeled PICV = format: biochemical
measles virus (MV) = format: cell-based
[2] = tested on: vesicular stomatitis virus (VSV); format: cell-based
PICV = format: cell-based
[3] = tested on: herpes simplex virus-1 (HSV-1, McIntyre strain); format: cell-based
[4] = tested on: pseudotyped VSV expressing LASV GPC (VSVΔLASV); format: cell-based
Tamiami virus (TAMV) = format: cell-based

Molecule | DPH anisotropy [1] | dequenching of PICV pre-incubated at pH 5.0 prior to labeling (R18-labeled PICV; pH 5) | dequenching of R18-labeled virus (R18-labeled PICV; pH 7.4) | TMA-DPH anisotropy [1] | presence of pre-fusion glycoprotein spikes (cryo-EM) (Purified PICV) | size distribution of viral particles (cryo-EM) (Purified PICV) | inhibition of plaque formation (measles virus (MV)) | inhibition of plaque formation [2] | peptide concentration giving complete inhibition of plaque formation (PICV (CoAn 3739)) | IC50 (PICV (CoAn 3739); 1 h) [µM] | effect on viral infectivity (PICV) | effect on viral infectivity (plaque number) (PICV) | inhibition of plaque formation [3] | plaque reduction [4] [%] | plaque reduction (Tamiami virus (TAMV)) [%]
PGGYALEQWAIIWAGIKAF [Peptide 8] | purely incidental alterations in acyl chain packing |  |  |  |  |  |  |  |  |  |  |  |  |  | 
CC[C@H](C)[C@H](NC(=O)[C@H](CC(C)C)NC(=O)CNC(=O)[C@H](CC(N)=O)NC(=O)[C@@H](NC(=O)[C@@H](NC(=O)[C@H](CCCCN)NC(=O)[C@H](CCCCN)NC(=O)[C@H](Cc1ccccc1)NC(=O)[C@H](CC(C)C)NC(=O)[C@H](CC(N)=O)NC(=O)[C@@H](N)CC(C)C)[C@@H](C)O)[C@@H](C)CC)C(=O)N[C@@H](CO)C(=O)N[C@@H](CC(=O)O)C(=O)N[C@@H](CO)C(=O)N[C@@H](CC(C)C)C(=O)N[C@H](C(=O)N[C@H](C(=O)N[C@@H](CCCNC(=N)N)C(=O)O)[C@@H](C)CC)C(C)C [Peptide 1] | Concentration-dependent increases in probe anisotropy values were observed to a greater degree with Peptide 1 than with Peptide 8 | did not induce significant dequenching | extensive dequenching | increased substantially | Disappearance of pre-fusion glycoprotein spikes was also observed in a significant number of particles | greater shift toward larger particles | not significantly inhibited | not significantly inhibited | approximately 20 μM | 7.05 ± 2.19 | no significant antiviral activity or increase in viral infectivity was observed | no increase in plaque number was observed | not significantly inhibited | 63.8±13.0 | 45.0±5.0
